{"source": "patent US9428462B2", "about": "“4-[-2-[[5-methyl-1-(2-naphthalenyl)-1H-pyrazol-3-yl]oxy]ethyl]morpholine hydrochloride amorphous solid forms” (priority 2010, dated 2016)", "assay_type_in_all_cases": "physicochemical", "key": {"[1]": {"assay": "1H NMR check of the stability of the salt in amorphous form samples", "conditions": "several samples of the amorphous form, CDCl3", "procedure": "In addition, several samples of the amorphous form obtained were analyzed by ^1H NMR in order to check the stability of the salt (FIG. 2 is a ^1H NMR spectrum of the amorphous phase).\nProton nuclear magnetic resonance analyses were recorded in deuterated chloroform (CDCl3) in a Bruker Avance 400 Ultrashield NMR spectrometer, equipped with a z-gradient 5 mm BBO (Broadband Observe) probe with ATM and an automatic BACS-120 autosampler. Spectra were acquired solving 2-10 mg of sample in 0.6 mL of deuterated solvent."}, "[2]": {"assay": "Drying experiments of the amorphous phase for four hours at different temperatures, solid analyzed by PXRD", "conditions": "for Solid phase after drying: PXRD", "procedure": "(§1) Approximately 20 mg of the non manipulated samples were prepared in standard sample holders using two foils of polyacetate.\n(§2) Powder diffraction patterns were acquired on a D8 Advance Series 2Theta/Theta powder diffraction system using CuKα-radiation in transmission geometry (Wavelength: 1.54060 Å). The system was equipped with a VANTEC-1 single photon counting PSD, a Germanium monochromator, a ninety positions auto changer sample stage, fixed divergence slits and radial soller. Programs used: Data collection with DIFFRAC plus XRD Commander V.2.5.1 and evaluation with EVA V.12.0.\nIn order to test the stability of the amorphous phase and to investigate its stability, different portions of the amorphous phase were dried for four hours at different temperatures (table 5). Once the samples were dried the solid was analyzed by PXRD."}, "[3]": {"assay": "Drying experiments of the amorphous phase under vacuum (5-7 mbar) at different temperatures and times, solid analyzed by PXRD", "conditions": "for Solid phase after drying under vacuum: PXRD", "procedure": "as §1, §2\nIn a second experiment, different portions of the amorphous phase were dried under vacuum conditions (5-7 mbar) at room temperature, 40° C. and 60° C. for different times (4, 8, 16 and 24 hours; table 6). Once the samples were dried, the solid was analyzed by PXRD. […] In the experiments performed at 40° C. the amorphous phase began to crystallize after 16 hours. In the experiments performed at 60° C. the amorphous phase began to crystallize after 8 hours and phase I could be clearly identified after 16 hours."}}}
{"smiles": "Cc1cc(OCCN2CCOCC2)nn1-c1ccc2ccccc2c1.Cl", "note": "[amorphous phase, 4-[2-[[5-methyl-1-(2-naphthalenyl)-1H-pyrazol-3-yl]oxy]ethyl]morpholine hydrochloride]", "values": [{"measurement": "Stability of the salt by 1H NMR", "setting": "[1]", "value": "no signs of the lost of HCl or decomposition of the samples could be observed"}, {"measurement": "Solid phase after drying", "setting": "[2]; Sample 1: dried four hours at rt", "value": "amorphous"}, {"measurement": "Solid phase after drying", "setting": "[2]; Sample 2: dried four hours at 40 °C", "value": "amorphous"}, {"measurement": "Solid phase after drying", "setting": "[2]; Sample 3: dried four hours at 50 °C", "value": "amorphous"}, {"measurement": "Solid phase after drying", "setting": "[2]; Sample 4: dried four hours at 60 °C", "value": "amorphous"}, {"measurement": "Solid phase after drying", "setting": "[2]; Sample 5: dried four hours at 80 °C", "value": "amorphous + crystalline"}, {"measurement": "Solid phase after drying", "setting": "[2]; Sample 6: dried four hours at 90 °C", "value": "amorphous + crystalline"}, {"measurement": "Solid phase after drying", "setting": "[2]; Sample 7: dried four hours at 100 °C", "value": "phase I + crystalline"}, {"measurement": "Solid phase after drying", "setting": "[2]; Sample 8: dried four hours at 110 °C", "value": "phase I"}, {"measurement": "Solid phase after drying", "setting": "[2]; Sample 9: dried four hours at 120 °C", "value": "phase I"}, {"measurement": "Stability of the amorphous phase on drying", "setting": "[2]; four hours at temperature higher than 100° C.", "value": "transformed clearly to phase I"}, {"measurement": "Stability of the amorphous phase on drying", "setting": "[2]; temperatures over 60° C., four hours", "value": "transformed slightly to a crystalline phase, not clearly identified"}, {"measurement": "Stability of the amorphous phase on drying", "setting": "[2]; temperatures up to 60° C. for four hours", "value": "amorphous phase was recovered"}, {"measurement": "Solid phase after drying under vacuum", "setting": "[3]; Sample 10: vacuum 5-7 mbar, 23° C., 4 hours", "value": "amorphous"}, {"measurement": "Solid phase after drying under vacuum", "setting": "[3]; Sample 11: vacuum 5-7 mbar, 23° C., 8 hours", "value": "amorphous"}, {"measurement": "Solid phase after drying under vacuum", "setting": "[3]; Sample 12: vacuum 5-7 mbar, 23° C., 16 hours", "value": "amorphous"}, {"measurement": "Solid phase after drying under vacuum", "setting": "[3]; Sample 13: vacuum 5-7 mbar, 23° C., 24 hours", "value": "amorphous"}, {"measurement": "Solid phase after drying under vacuum", "setting": "[3]; Sample 14: vacuum 5-7 mbar, 40° C., 4 hours", "value": "amorphous"}, {"measurement": "Solid phase after drying under vacuum", "setting": "[3]; Sample 15: vacuum 5-7 mbar, 40° C., 8 hours", "value": "amorphous"}, {"measurement": "Solid phase after drying under vacuum", "setting": "[3]; Sample 16: vacuum 5-7 mbar, 40° C., 16 hours", "value": "amorphous + phase I"}, {"measurement": "Solid phase after drying under vacuum", "setting": "[3]; Sample 17: vacuum 5-7 mbar, 40° C., 24 hours", "value": "amorphous + phase I"}, {"measurement": "Solid phase after drying under vacuum", "setting": "[3]; Sample 18: vacuum 5-7 mbar, 60° C., 4 hours", "value": "amorphous"}, {"measurement": "Solid phase after drying under vacuum", "setting": "[3]; Sample 19: vacuum 5-7 mbar, 60° C., 8 hours", "value": "amorphous + phase I"}, {"measurement": "Solid phase after drying under vacuum", "setting": "[3]; Sample 20: vacuum 5-7 mbar, 60° C., 16 hours", "value": "phase I"}, {"measurement": "Solid phase after drying under vacuum", "setting": "[3]; Sample 21: vacuum 5-7 mbar, 60° C., 24 hours", "value": "phase I"}, {"measurement": "Time after which the amorphous phase began to crystallize", "setting": "[3]; vacuum 5-7 mbar, 40° C.", "value": 16, "unit": "h"}, {"measurement": "Time after which phase I could be clearly identified", "setting": "[3]; vacuum 5-7 mbar, 60° C.", "value": 16, "unit": "h"}, {"measurement": "Time after which the amorphous phase began to crystallize", "setting": "[3]; vacuum 5-7 mbar, 60° C.", "value": 8, "unit": "h"}, {"measurement": "Stability of the amorphous phase on drying under vacuum", "setting": "[3]; vacuum 5-7 mbar, room temperature, up to 24 hours", "value": "did not change after drying"}]}
